This passage reports Activity results from ChEMBL document CHEMBL5715954, “Silencing c-Myc translation as a therapeutic strategy through targeting PI3Kδ and CK1ε in hematological malignancies” (Blood, 2017).

Common to all, as to parameters: scale not given: the % may be the effect or the level left
Experiment [1] has as its target LIM domain kinase 1 (Homo sapiens) (UniProt P53667). The experiment in a line: Inhibition of human LIMK1 assessed as enzyme activity at 1 uM using cofilin 1 as substrate preincubated for 20 mins followed by [gamma-33P]-ATP addition and measured after 120 mins by radiometric Hot-SpotSM Kinase assay relative to control.
Experiment [2] addresses Citron Rho-interacting kinase (Homo sapiens) (UniProt O14578). The experiment in a line: Inhibition of human STK21 assessed as enzyme activity at 1 uM using KKRPQRRYSNVF as substrate preincubated for 20 mins followed by [gamma-33P]-ATP addition and measured after 120 mins by radiometric Hot-SpotSM Kinase assay relative to control.
The target of experiment [3] is Glycogen synthase kinase-3 beta (Homo sapiens) (UniProt P49841). As to the kind of experiment: Inhibition of human GSK3b assessed as enzyme activity at 1 uM using YRRAAVPPSPSLSRHSSPHQ(pS)EDEEE as substrate preincubated for 20 mins followed by [gamma-33P]-ATP addition and measured after 120 mins by radiometric Hot-SpotSM Kinase assay relative to control.
The target of experiment [4] is Calcium/calmodulin-dependent protein kinase kinase 1 (Homo sapiens) (UniProt Q8N5S9). As to the kind of experiment: Inhibition of human CAMKK1 assessed as enzyme activity at 1 uM using myelin basic protein as substrate preincubated for 20 mins followed by [gamma-33P]-ATP addition and measured after 120 mins by radiometric Hot-SpotSM Kinase assay relative to control.

The target of experiment [5] is T1, Kinase suppressor of Ras 1 (Homo sapiens) (UniProt Q8IVT5).
T1 sequence (whole entry): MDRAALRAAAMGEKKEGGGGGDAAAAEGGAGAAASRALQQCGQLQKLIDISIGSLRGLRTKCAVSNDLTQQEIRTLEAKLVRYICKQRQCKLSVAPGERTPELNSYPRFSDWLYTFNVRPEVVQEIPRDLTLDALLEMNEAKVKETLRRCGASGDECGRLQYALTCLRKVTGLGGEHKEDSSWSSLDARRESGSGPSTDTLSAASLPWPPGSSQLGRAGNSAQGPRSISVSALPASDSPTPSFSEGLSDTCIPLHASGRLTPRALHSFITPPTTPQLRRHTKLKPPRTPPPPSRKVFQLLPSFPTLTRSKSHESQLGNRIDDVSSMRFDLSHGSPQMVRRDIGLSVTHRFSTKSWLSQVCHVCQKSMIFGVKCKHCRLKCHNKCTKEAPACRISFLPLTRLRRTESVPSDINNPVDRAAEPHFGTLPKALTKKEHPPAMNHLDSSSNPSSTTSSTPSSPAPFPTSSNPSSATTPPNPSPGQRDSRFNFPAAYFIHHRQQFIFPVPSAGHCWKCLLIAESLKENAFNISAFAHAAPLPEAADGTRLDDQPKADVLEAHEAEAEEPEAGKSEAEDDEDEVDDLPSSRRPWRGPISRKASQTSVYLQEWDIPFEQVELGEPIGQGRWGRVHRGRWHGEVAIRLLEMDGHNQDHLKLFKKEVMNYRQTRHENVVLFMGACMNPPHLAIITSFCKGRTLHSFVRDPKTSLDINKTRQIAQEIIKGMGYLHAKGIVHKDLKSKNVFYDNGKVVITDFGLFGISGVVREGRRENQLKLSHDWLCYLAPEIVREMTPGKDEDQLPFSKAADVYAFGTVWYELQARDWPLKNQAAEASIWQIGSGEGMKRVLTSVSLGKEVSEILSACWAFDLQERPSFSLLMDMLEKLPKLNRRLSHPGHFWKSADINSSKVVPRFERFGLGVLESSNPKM
The experiment in a line: Inhibition of human KSR1 assessed as enzyme activity at 1 uM using KRREILSRRPSYR as substrate preincubated for 20 mins followed by [gamma-33P]-ATP addition and measured after 120 mins by radiometric Hot-SpotSM Kinase assay relative to control.

The target in experiment [6] is Tyrosine-protein kinase BTK (Homo sapiens) (UniProt Q06187). The experiment in a line: Inhibition of human BTK assessed as enzyme activity at 1 uM using poly[Glu:Tyr] (4:1) as substrate preincubated for 20 mins followed by [gamma-33P]-ATP addition and measured after 120 mins by radiometric Hot-SpotSM Kinase assay relative to control.
The target in experiment [7] is Mitogen-activated protein kinase kinase kinase kinase 4 (Homo sapiens) (UniProt O95819). As to the kind of experiment: Inhibition of human HGK assessed as enzyme activity at 1 uM using myelin basic protein as substrate preincubated for 20 mins followed by [gamma-33P]-ATP addition and measured after 120 mins by radiometric Hot-SpotSM Kinase assay relative to control.

The target in experiment [8] is Mitogen-activated protein kinase kinase kinase 11 (Homo sapiens) (UniProt Q16584). As to the kind of experiment: Inhibition of human MLK3 assessed as enzyme activity at 1 uM using myelin basic protein as substrate preincubated for 20 mins followed by [gamma-33P]-ATP addition and measured after 120 mins by radiometric Hot-SpotSM Kinase assay relative to control.
The target in experiment [9] is T2, Serine/threonine-protein kinase D2 (Homo sapiens) (UniProt Q9BZL6).
T2 sequence (whole entry): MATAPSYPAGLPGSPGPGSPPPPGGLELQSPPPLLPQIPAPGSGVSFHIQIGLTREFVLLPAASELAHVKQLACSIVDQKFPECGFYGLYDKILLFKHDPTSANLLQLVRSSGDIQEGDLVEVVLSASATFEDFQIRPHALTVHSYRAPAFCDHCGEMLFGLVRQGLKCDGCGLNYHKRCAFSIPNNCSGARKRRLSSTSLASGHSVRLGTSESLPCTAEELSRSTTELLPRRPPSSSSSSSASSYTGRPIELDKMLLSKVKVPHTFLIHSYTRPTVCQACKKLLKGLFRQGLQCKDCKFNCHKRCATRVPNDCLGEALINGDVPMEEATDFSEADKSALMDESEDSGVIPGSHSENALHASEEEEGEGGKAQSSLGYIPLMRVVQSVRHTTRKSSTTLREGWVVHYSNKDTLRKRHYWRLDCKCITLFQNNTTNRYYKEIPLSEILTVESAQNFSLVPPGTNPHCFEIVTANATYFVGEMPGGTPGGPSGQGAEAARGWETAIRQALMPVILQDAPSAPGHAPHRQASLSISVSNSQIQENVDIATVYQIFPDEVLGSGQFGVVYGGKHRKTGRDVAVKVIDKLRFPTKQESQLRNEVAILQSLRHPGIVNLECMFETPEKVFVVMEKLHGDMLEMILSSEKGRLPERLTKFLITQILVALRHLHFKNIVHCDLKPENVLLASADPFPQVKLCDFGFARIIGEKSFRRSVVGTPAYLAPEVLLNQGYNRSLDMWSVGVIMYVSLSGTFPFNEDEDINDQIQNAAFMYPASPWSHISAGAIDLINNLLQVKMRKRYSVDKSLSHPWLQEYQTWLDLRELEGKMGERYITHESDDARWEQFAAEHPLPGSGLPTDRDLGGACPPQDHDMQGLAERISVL
The experiment in a line: Inhibition of human PKD2 assessed as enzyme activity at 1 uM using KKLNRTLSVA as substrate preincubated for 20 mins followed by [gamma-33P]-ATP addition and measured after 120 mins by radiometric Hot-SpotSM Kinase assay relative to control.

Sequence of Tyrosine-protein kinase BTK (Homo sapiens) (Q06187 whole entry): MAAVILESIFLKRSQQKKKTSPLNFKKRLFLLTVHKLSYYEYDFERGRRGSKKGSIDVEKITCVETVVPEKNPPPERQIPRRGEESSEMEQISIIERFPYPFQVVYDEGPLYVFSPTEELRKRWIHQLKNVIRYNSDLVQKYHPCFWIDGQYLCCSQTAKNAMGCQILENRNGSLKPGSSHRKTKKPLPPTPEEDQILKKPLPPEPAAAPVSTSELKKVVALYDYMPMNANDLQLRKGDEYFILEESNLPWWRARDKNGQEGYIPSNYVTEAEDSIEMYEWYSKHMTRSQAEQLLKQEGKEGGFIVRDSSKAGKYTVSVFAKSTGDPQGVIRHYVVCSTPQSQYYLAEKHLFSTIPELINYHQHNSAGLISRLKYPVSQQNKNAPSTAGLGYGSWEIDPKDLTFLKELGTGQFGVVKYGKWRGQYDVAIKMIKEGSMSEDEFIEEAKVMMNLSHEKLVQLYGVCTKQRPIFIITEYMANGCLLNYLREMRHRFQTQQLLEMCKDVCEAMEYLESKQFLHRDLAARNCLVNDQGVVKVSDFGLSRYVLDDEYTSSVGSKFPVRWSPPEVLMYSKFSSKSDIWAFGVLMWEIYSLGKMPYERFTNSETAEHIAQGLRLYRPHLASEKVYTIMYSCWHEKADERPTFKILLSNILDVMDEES
Sequence of Mitogen-activated protein kinase kinase kinase kinase 4 (Homo sapiens) (O95819 2-1239 limits assumed): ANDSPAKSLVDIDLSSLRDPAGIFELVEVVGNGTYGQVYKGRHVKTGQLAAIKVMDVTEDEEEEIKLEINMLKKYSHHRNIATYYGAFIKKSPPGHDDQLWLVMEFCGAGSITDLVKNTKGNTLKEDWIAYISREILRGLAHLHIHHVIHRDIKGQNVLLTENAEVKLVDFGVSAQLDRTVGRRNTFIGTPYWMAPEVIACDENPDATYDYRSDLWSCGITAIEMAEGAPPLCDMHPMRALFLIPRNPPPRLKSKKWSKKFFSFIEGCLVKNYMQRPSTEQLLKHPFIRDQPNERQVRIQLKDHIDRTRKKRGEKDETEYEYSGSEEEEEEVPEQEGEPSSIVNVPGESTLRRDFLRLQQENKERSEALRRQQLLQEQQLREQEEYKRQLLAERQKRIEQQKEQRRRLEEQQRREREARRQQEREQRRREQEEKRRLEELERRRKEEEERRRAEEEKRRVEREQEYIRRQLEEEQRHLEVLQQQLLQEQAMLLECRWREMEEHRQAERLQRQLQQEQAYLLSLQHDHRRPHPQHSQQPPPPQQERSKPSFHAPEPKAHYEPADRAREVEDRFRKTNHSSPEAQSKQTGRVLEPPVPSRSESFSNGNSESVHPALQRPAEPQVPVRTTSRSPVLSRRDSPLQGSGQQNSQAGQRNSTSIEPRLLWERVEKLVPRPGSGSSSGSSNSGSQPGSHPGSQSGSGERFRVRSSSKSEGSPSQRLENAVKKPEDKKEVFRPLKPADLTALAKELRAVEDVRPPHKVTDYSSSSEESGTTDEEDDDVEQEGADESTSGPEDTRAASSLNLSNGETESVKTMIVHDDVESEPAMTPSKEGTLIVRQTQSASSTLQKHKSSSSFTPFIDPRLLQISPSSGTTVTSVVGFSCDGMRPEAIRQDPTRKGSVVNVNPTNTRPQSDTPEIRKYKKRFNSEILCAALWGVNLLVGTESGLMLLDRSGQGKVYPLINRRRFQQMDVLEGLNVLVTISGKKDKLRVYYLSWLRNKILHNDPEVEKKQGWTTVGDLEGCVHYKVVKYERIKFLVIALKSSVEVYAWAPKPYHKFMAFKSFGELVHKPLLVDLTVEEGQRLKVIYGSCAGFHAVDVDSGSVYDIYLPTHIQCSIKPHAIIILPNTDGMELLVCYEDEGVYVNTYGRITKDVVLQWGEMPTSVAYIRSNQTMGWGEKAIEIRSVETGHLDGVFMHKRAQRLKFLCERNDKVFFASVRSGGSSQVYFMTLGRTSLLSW
Sequence of Calcium/calmodulin-dependent protein kinase kinase 1 (Homo sapiens) (Q8N5S9 whole entry, looked up): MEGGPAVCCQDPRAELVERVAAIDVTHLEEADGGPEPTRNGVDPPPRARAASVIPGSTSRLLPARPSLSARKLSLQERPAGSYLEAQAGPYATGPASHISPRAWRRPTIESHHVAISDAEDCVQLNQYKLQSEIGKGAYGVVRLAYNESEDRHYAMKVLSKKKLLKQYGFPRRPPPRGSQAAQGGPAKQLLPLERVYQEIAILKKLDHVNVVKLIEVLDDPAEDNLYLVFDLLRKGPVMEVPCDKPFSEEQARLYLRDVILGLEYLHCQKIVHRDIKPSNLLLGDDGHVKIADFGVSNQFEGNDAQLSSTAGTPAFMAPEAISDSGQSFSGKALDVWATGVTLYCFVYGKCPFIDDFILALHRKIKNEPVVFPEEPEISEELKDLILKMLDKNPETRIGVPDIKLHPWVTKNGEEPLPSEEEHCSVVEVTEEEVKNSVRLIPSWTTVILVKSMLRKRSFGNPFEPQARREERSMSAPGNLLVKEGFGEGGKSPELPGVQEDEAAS
Sequence of Glycogen synthase kinase-3 beta (Homo sapiens) (P49841 whole entry, looked up): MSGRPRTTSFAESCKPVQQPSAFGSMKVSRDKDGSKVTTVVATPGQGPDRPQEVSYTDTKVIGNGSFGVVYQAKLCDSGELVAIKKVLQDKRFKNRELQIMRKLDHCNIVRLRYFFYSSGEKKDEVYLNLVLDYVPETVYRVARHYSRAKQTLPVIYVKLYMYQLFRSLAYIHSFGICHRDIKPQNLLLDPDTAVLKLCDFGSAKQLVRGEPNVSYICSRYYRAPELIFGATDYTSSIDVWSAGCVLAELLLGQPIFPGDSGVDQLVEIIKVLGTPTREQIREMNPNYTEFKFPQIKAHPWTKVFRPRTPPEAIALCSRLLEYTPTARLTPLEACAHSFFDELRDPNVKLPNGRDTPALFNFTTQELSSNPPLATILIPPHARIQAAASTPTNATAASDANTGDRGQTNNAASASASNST
Sequence of Mitogen-activated protein kinase kinase kinase 11 (Homo sapiens) (Q16584 whole entry, looked up): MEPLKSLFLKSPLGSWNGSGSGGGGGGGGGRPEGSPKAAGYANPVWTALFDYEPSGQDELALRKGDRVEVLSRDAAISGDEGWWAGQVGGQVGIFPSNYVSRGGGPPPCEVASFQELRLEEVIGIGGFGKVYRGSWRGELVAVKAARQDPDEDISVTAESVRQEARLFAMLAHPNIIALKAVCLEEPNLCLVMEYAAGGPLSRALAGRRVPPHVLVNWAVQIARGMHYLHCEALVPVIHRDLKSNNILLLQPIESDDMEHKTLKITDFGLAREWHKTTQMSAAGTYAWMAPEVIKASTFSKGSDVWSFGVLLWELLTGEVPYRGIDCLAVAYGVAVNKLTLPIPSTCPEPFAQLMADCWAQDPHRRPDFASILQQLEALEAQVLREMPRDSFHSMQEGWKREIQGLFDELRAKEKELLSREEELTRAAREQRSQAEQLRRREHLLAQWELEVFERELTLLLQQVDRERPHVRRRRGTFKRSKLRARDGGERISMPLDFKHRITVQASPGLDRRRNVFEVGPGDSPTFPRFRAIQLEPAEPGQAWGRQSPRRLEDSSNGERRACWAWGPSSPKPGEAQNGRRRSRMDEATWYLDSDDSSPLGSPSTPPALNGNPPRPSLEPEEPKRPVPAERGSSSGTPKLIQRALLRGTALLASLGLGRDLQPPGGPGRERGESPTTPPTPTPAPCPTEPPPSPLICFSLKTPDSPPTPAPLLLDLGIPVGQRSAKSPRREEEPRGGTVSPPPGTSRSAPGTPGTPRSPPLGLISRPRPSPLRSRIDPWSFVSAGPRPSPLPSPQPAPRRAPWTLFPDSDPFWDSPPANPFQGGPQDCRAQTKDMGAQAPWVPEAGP
Sequence of LIM domain kinase 1 (Homo sapiens) (P53667 whole entry, looked up, the tested form may be a part): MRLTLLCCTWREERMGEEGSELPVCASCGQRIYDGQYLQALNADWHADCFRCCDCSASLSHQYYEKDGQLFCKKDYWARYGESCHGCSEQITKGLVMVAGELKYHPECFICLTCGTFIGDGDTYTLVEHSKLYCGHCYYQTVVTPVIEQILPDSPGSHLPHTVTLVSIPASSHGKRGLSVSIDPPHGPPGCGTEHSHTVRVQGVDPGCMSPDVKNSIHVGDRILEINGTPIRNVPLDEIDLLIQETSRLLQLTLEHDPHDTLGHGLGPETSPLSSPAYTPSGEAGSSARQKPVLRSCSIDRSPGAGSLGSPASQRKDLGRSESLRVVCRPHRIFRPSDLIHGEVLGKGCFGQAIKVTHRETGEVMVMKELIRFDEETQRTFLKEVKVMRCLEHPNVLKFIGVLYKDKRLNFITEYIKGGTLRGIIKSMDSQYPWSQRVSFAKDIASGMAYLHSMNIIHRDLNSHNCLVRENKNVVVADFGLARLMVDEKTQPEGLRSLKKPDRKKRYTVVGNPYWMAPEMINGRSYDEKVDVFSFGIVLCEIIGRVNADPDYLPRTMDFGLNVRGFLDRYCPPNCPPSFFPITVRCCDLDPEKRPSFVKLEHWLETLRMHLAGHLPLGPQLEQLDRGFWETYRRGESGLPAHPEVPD

With `C[C@H](Nc1ncnc2nc[nH]c12)c1cc2cccc(Cl)c2c(=O)n1-c1ccccc1`, the Activity came out at 90% in [1]; 93.5% in experiment [2]; 113% in [3]; 98.1% in experiment [4]; 99.2% in experiment [5]; 98.7% in [6]. The figures for the Activity in experiment [7], in [8] and in experiment [9] were 97.1%, 75.1% and 99.2%, respectively.

In the case of `CC[C@H](Nc1ncnc2[nH]cnc12)c1nc2cccc(F)c2c(=O)n1-c1ccccc1`, the Activity in experiment [1] came to 87.3%; in [2], 101%; in experiment [3], 114%; in experiment [4], 105%; in experiment [5], 102%; in [6] it was 97.3%. The Activity in experiment [7] was 93%; in [8], 79.8%; in experiment [9] it was 101%.

On to `CC(C)Oc1ccc(-c2nn([C@@H](C)c3oc4ccc(F)cc4c(=O)c3-c3cccc(F)c3)c3ncnc(N)c23)cc1F` [UMBRALISIB], for which the Activity in experiment [1] was found to be 96.7%; in experiment [2] it was 113%; in experiment [3], 111%; in experiment [4], 102%; in experiment [5] it was 103%; in experiment [6], 96.8%. The Activity in experiment [7] came to 97.1%; in experiment [8], 80.9%; in experiment [9] it was 101%.
